Data on 5 compounds can be found in publication PMC9090415, “Discovery of small molecule inhibitors of Plasmodium falciparum apicoplast DNA polymerase” (Journal of Enzyme Inhibition and Medicinal Chemistry, 2022).

This assay addresses P. falciparum apicoplast DNA polymerase (Pf-apPOL) (Plasmodium falciparum, UniProt Q8ILY1). The assay can be described thus: Fluorescence-based high-throughput DNA polymerase assay (molecular beacon), primary screen and dose-response. The assay is classed as biochemical. The procedure:
The HT assay employs a molecular beacon, a stem-loop DNA template with a Cy3 dye and the Black Hole Quencher on the 3′ and 5′ ends of the DNA, respectively. Pf-apPOL concentration is based on a calculated absorptivity of ε280 = 56750 M^−1 cm^−1. Reactions were carried out at 25 °C, using Corning 3575 […] (well-volume, 20 µL). Assays testing for compound inhibition composed of reaction buffer (pH 7.9 in 50 mM potassium acetate, 20 mM Tris-acetate and 10 mM magnesium acetate), Pf-apPOL (20 nM), DNA substrate (20 nM), dNTPs (6 µM), and compound (10 µM in DMSO). The DNA and nucleotide substrates (dNTPs) were at concentrations of 20 nM and 6 µM, respectively, in the assay. Pf-apPOL was incubated in the reaction buffer with dNTPs and the compound of interest (10 µM, in the assay) at 25 °C for 10 min. The DNA substrate was then added and the reaction was allowed to proceed for 90 min at 25 °C.
Each assay plate contained 16 negative controls (no Pf-apPOL, DMSO present) and 16 positive controls (Pf-apPOL present, no DMSO). The fluorescence of each well was determined using a BioTek Synergy Neo fluorescence plate reader using excitation and emission wavelengths of 555 and 570 nm, respectively.
In the above, Min is the average of fluorescence emission of the negative controls (substrate only), Max the average fluorescence emission from the positive controls (enzyme + substrate), and Test the emission from the assays in the presence of compounds (enzyme + compound + substrates). […] […] The IC50 of each compound was determined using Equation (2): (2) IC50= Vmax/(1+ (I/IC50)^n)
In the above, n measures cooperativity, with n > 1 indicating synergistic binding of more than a single molecule of the compound.
To identify apPOL inhibitors we utilised our previously developed high-throughput DNA polymerase assay. The HT assay is based on a molecular beacon DNA template that forms a stem-loop with a Cy3 dye and the Black Hole Quencher on the 3′ and 5′ ends of the DNA, respectively. DNA polymerase activity extends an annealed primer through the stem region, displacing the fluorophore from the quencher, thereby increasing its fluorescence (Figure 1(A)). The assay accurately recapitulates the kinetic behaviour of apPOL, as measured through more conventional low-throughput gel-based assays. The Z′ factor for the assay described here was 0.9 across all plates (data not shown).
Figure 1. High-throughput screening. (A) The fluorescent-based DNA polymerase assay used to screen the compound libraries. The DNA template strand is a hairpin loop with a primer annealed to the loop. The 3’ end of the primer is 11 bases away from the 6 bp duplex. Strand displacement activity of the DNA polymerase separates the Cy3 dye from the Black hole quencher leading to an increase in fluorescent signal. (B) The high-throughput assay workflow. The DNA polymerase is incubated with […] compound for 10 min prior to addition of the hairpin substrate. The reaction is quenched at 3 different time points and the fluorescent signal is measured and % inhibition is determined using the provided equation.

Where [1] appears, read: primary screen value of the 186 hits; unit not given; 90 min, 10 µM.
[2] abbreviates: supplemental file 2, sheet IC50 nontoxic compounds; Pf-apPOL.

SMILES strings stand for the structures.

Sequence of P. falciparum apicoplast DNA polymerase (Pf-apPOL) (Q8ILY1 entry or part of it): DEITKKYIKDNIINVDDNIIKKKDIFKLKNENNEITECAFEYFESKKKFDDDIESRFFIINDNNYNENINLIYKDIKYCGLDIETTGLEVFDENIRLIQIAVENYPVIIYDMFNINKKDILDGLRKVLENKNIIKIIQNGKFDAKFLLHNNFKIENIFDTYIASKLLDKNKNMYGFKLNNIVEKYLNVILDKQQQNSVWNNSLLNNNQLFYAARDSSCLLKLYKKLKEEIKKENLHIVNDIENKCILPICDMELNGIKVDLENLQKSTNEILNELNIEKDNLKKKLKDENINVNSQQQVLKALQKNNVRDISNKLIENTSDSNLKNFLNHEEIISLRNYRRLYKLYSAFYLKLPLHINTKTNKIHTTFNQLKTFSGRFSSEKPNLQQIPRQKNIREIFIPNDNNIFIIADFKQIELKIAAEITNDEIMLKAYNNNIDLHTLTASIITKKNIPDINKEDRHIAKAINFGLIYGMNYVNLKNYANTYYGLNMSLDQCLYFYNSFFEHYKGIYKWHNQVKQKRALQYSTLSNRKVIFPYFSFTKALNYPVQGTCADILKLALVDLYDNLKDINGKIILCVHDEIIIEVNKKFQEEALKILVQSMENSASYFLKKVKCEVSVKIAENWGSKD

Turning to `COc1cc(/C=C2\C(=O)N(c3ccc(C(=O)O)cc3)N=C2C(F)(F)F)ccc1OCC(C)C` [KU0069072], the “% inhibition Apo pol 10'” value (DRC-1; concentration 2.5; 10') is recorded as 27.3475%; the “% inhibition Apo pol 10'” value (DRC-1; concentration 5; 10') stood at 10.3149%; the “% inhibition Apo pol 10'” value (DRC-1; concentration 10; 10') was 46.067%; the “% inhibition Apo pol 10'” value (DRC-1; concentration 20; 10') was determined as 70.4954%; the “% inhibition Apo pol 10'” value (DRC-1; concentration 40; 10') was found to be 88.0061%; the “% inhibition Apo pol 10'” value (DRC-1; concentration 80 (unit not given); 10') is listed as 95.6412%. For the same compound, the “% inhibition Apol 90'” value reads like this: (DRC-1; concentration 2.5; 90') 15.3217%; (DRC-1; concentration 5; 90') -0.5045%; (DRC-1; concentration 10; 90') 33.8794%; (DRC-1; concentration 20; 90') 63.3531%; (DRC-1; concentration 40; 90') 82.4517%; (DRC-1; concentration 80; 90') 93.9861%. For the same compound, the “% inhibition apPOL 180'” value by setting is: (DRC-1; concentration 2.5; 180') 6.275%; (DRC-1; concentration 5; 180') -5.844%; (DRC-1; concentration 10; 180') 21.4839%; (DRC-1; concentration 20; 180') 50.844%; (DRC-1; concentration 40; 180') 75.9132%; (DRC-1; concentration 80; 180') 92.8608%. The “% inhibition apPOL 180'” value (DRC-2; concentration 2.5; 180') is on record as 0.394%; the “% inhibition apPOL 180'” value (DRC-2; concentration 5; 180') is listed as -9%; the “% inhibition apPOL 180'” value (DRC-2; concentration 10; 180') is recorded as 15%; the “% inhibition apPOL 180'” value (DRC-2; concentration 20; 180') is given as 40%; the “% inhibition apPOL 180'” value (DRC-2; concentration 40; 180') is 66%; the “% inhibition apPOL 180'” value (DRC-2; concentration 80; 180') is recorded as 82%. Besides, the “% inhibition Apo pol 5'” value runs as follows: (DRC-2; concentration 2.5; 5') 4%; (DRC-2; concentration 5; 5') -3.52%; (DRC-2; concentration 10; 5') 24%; (DRC-2; concentration 20; 5') 44%; (DRC-2; concentration 40; 5') 59%; (DRC-2; concentration 80; 5') 65%. Also, the “% inhibition Apol 40'” value is, setting by setting: (DRC-2; concentration 2.5; 40') 4.27%; (DRC-2; concentration 5; 40') -5%; (DRC-2; concentration 10; 40') 28%; (DRC-2; concentration 20; 40') 51%; (DRC-2; concentration 40; 40') 70%; (DRC-2; concentration 80; 40') 78%. Besides, the “% inhibition ApPOL 90'” value runs as follows: (DRC-2; concentration 2.5; 90') 2.38%; (DRC-2; concentration 5; 90') -7%; (DRC-2; concentration 10; 90') 25%; (DRC-2; concentration 20; 90') 50%; (DRC-2; concentration 40; 90') 71%; (DRC-2; concentration 80; 90') 80%. Moreover, the “DNA Pol” value is, setting by setting: under setting [1], 76; (primary screen value; head prints only 'DNA Pol'; 90 min, 10 µM) 76.
The IC50 is the concentration that inhibits the measured activity by half. On to `Cc1cccc(-c2nnc3ccc(NS(=O)(=O)c4ccc(C)c(C)c4)nn23)c1` [Molecule 40], for which the IC50 under setting [2] is 10.1 µM.
`O=C(CSc1nc2ccccc2s1)Nc1ncc([N+](=O)[O-])s1` [KU0019667]: the “% inhibition Apo pol 10'” value by setting is: (DRC-1; 10'; concentration 2.5) 10.9138%; (DRC-1; 10'; concentration 5) 29.1635%; (DRC-1; 10'; concentration 10) 61.6987%; (DRC-1; 10'; concentration 20) 83.6526%; (DRC-1; 10'; concentration 40) 89.1806%; (DRC-1; 10'; concentration 80) 87.7336%. For the same compound, the “% inhibition Apol 90'” value reads like this: (DRC-1; 90'; concentration 2.5) 0.4185%; (DRC-1; 90'; concentration 5) 12.4734%; (DRC-1; 90'; concentration 10) 42.9699%; (DRC-1; 90'; concentration 20) 72.9689%; (DRC-1; 90'; concentration 40) 86.0812%; (DRC-1; 90'; concentration 80) 87.9131%. In addition, the “% inhibition apPOL 180'” value is, setting by setting: (DRC-1; 180'; concentration 2.5) -6.305%; (DRC-1; 180'; concentration 5) -0.1201%; (DRC-1; 180'; concentration 10) 24.654%; (DRC-1; 180'; concentration 20) 57.312%; (DRC-1; 180'; concentration 40) 80.0815%; (DRC-1; 180'; concentration 80) 84.5661%. Further, the “% inhibition apPOL 180'” value reads like this: (DRC-2; 180'; concentration 2.5) -13%; (DRC-2; 180'; concentration 5) -17%; (DRC-2; 180'; concentration 10) -18%; (DRC-2; 180'; concentration 20) -23%; (DRC-2; 180'; concentration 40) -7%; (DRC-2; 180'; concentration 80) -23%. In addition, the “% inhibition apPOL 180'” value was -13% (conc. 2.5; 180'; DRC-2), -23% (conc. 20; 180'; DRC-2) and -23% (conc. 80; 180'; DRC-2). The “% inhibition Apo pol 5'” value is on record as 0.175% (DRC-2; 5'; concentration 2.5); -22% (DRC-2; 5'; concentration 5); -38% (DRC-2; 5'; concentration 10); -73% (DRC-2; 5'; concentration 20); -86% (DRC-2; 5'; concentration 40); -130% (DRC-2; 5'; concentration 80). Besides, the “% inhibition Apol 40'” value by setting is: (DRC-2; 40'; concentration 2.5) -1.35%; (DRC-2; 40'; concentration 5) -10%; (DRC-2; 40'; concentration 10) -13%; (DRC-2; 40'; concentration 20) -32%; (DRC-2; 40'; concentration 40) -29%; (DRC-2; 40'; concentration 80) -70%. The “% inhibition Apol 40'” value was -10% (conc. 5; 40'; DRC-2) and -13% (conc. 10; 40'; DRC-2). Moreover, the “% inhibition ApPOL 90'” value (DRC-2; 90'; concentration 2.5) is listed as -3%; the “% inhibition ApPOL 90'” value (DRC-2; 90'; concentration 5) is on record as -10%; the “% inhibition ApPOL 90'” value (DRC-2; 90'; concentration 10) is recorded as -10%; the “% inhibition ApPOL 90'” value (DRC-2; 90'; concentration 20) is listed as -23%; the “% inhibition ApPOL 90'” value (DRC-2; 90'; concentration 40) is on record as -14%; the “% inhibition ApPOL 90'” value (DRC-2; 90'; concentration 80) is recorded as -45%. Further, the “% inhibition ApPOL 90'” value by setting is: (conc. 5; 90'; DRC-2) -10%; (conc. 10; 90'; DRC-2) -10%; (conc. 20; 90'; DRC-2) -23%. For the same compound, the “DNA Pol” value by setting is: (primary screen value by plate and well; 90 min, 10 µM) 67; under setting [1], 67.
On to `O=C(Cn1ccc2c(=O)[nH]ccc21)Nc1cccc(Cl)c1` [Molecule 23], for which the IC50 under setting [2] stood at 9.11 µM.
Still for that read-out and setting: the result for `Cc1ccc(N2CCC(NC(=O)Cc3cccs3)C2=O)cc1C` (stereo not drawn) [Molecule 57] reads 29 µM.
